{"source": "paper PMC10295897", "about": "“A Novel MDM2-Binding Chalcone Induces Apoptosis of Oral Squamous Cell Carcinoma” (Biomedicines, 2023)", "key": {"SCC9 cells": {"system": "SCC9 cells", "assay": "MTT cell viability assay, SCC9 oral cancer cells", "format": "cell-based, human", "details": "for IC50: MTT; for SCC9 S.I.: selective index = IC50 HGF / IC50 SCC9; for dose-dependent cytotoxicity: SCC9, MTT", "procedure": "(§1) Human SCC-4, SCC-9, and SCC-25 cells derived from a human oral tongue SCC (squamous cell carcinoma) were obtained from the ATCC (CRL-1624, CRL-1629, and CRL-1628, respectively) and maintained in 1:1 DMEM/F12 (Dulbecco’s modified Eagle medium and Ham’s F12 medium; Gibco (Thermo Fisher, Waltham, MA, USA)) supplemented with 10% (v/v) FBS (fetal bovine serum; Invitrogen, Thermo Fisher, Waltham, MA, USA) and 400 ng/mL hydrocortisone (Sigma-Aldrich Co., St. Louis, MO, USA). Primary normal human gingival fibroblasts were obtained from the ATCC (PCS-201-018; HGF) and maintained in DMEM supplemented with 10% (v/v) FBS and were used in a maximum of six passages. The cells were grown in a humidified environment containing 5% CO2 at 37 °C. For all biological experiments, the compounds and control nutlin 3a were solubilized in 100% DMSO (all Sigma-Aldrich) to a final concentration of 10 mM. Carboplatin stock was prepared in water (Fauldcarbo®; LibbsFarmacêutica, São Paulo, SP, Brazil) and was used as a standard anticancer compound.\n(§2) The viability of SCC cell lines, HT-29, HCT-116, HEP2G and primary human fibroblast cells was evaluated using the MTT assay as in [26]. Briefly, the cells were grown in duplicates in 96-well plates (5 × 10^3 cells/well) until confluence. Then, the medium was removed, fresh medium was added, and the cells were returned to the incubator in the presence of different compounds. DMSO at the same concentrations was used as a 100% cell viability control. After 48 h, the cells were incubated with 5 mg/mL MTT reagent (3-(4,5-dimethyl-2-thiazolyl)-2,5-diphenyl-2-H-tetrazolium bromide) (Sigma-Aldrich Co., St. Louis, MO, USA) for 3.5 h. After that, formazan crystals were dissolved in MTT solvent solution (DMSO/methanol 1:1 v/v), and the absorbance at 560 nm was evaluated using an EPOCH microplate spectrophotometer (BioTek Instruments, Winooski, VT, USA) with the background absorbance at 670 nm subtracted. Each of the six compounds was tested at six or seven different concentrations, ranging from 0.3 µM to 200 µM in cancer cell lines (SCC-4, SCC-9 and SCC-25) and 0.3 µM to 200 µM in primary normal human gingival fibroblasts. Controls (carboplatin, nutlin 3a) were tested at six or seven different concentrations ranging from 0.05 µM to 1000 µM in cancer cells and normal cells, depending on the compound.\n(§3) The data are presented as means ± SD. IC values for the MTT assays were obtained by nonlinear regression using the […] 5.0 program (Intuitive Software for Science, San Diego, CA, USA) from at least three independent experiments. A dose–response (inhibitor) vs. response curve using the least squares method was used to determine the IC50, SD, and R^2 of the data. The selectivity index was calculated as SI = IC50 of the compound in normal oral fibroblast cells/IC50 of the same compound for each cancer cell line (SCC-4, SCC-9, SCC-25, HCT-116, HT29 and HEP2G), and the mean was calculated when indicated.\nInitially, the six chalcones (1a–f) were submitted to the MTT assay to evaluate their cytotoxicity. The assay was performed using the oral cancer cell line SCC9, and the results were analyzed by a non-linear regression curve to determine the value of the half maximal inhibitory concentration (IC50). As controls, known chemotherapeutic agents were used, namely carboplatin, routinely used in the treatment of oral cancer, and doxorubicin, widely used for other types of cancers."}, "[1]": {"assay": "Solubility observed during in vitro testing", "format": "physicochemical", "details": "in vitro cytotoxicity testing"}, "[2]": {"system": "Primary Gingival Fibroblast (HGF)", "assay": "MTT cell viability assay, primary normal gingival fibroblasts", "format": "cell-based, human", "details": "48 h", "procedure": "as §1, §2, §3"}, "SCC4 cells": {"system": "SCC4 cells", "assay": "MTT cell viability assay, SCC4 cells", "format": "cell-based, human", "details": "for IC50: 48 h, MTT; for SCC4 S.I.: selective index = IC50 HGF / IC50 SCC4", "procedure": "as §1, §2, §3"}, "SCC25 cells": {"system": "SCC25 cells", "assay": "MTT cell viability assay, SCC25 cells", "format": "cell-based, human", "details": "for IC50: 48 h, MTT; for SCC25 S.I.: selective index = IC50 HGF / IC50 SCC25", "procedure": "as §1, §2, §3"}, "[3]": {"system": "Oral Tumor Cells (SCC9, SCC25, SCC4)", "assay": "MTT assay, average over oral tumor cells", "format": "cell-based, human", "details": "for IC50: mean of SCC9, SCC25, SCC4; for Average S.I.: IC50 of normal primary fibroblasts / average IC50 of tumor cells", "procedure": "as §2, §3"}, "HT29 (adenocarcinoma)": {"system": "HT29 (adenocarcinoma)", "assay": "MTT cell viability assay, HT29", "format": "cell-based", "procedure": "as §2, §3"}, "[4]": {"details": "Homo sapiens, SCC-9, 48 h, SCC9, 48 h, read-out: IC50"}, "[5]": {"details": "Homo sapiens, SCC-9, 48 h, 48 h, read-out: SCC9 IC50"}}, "note": "Like-named read-outs stand apart in the source and are kept apart here."}
{"smiles": "COc1ccc(-n2cc(/C=C/C(=O)c3ccccc3N)nn2)cc1", "note": "[1c, (E)-1-(2-Aminophenyl)-3-(1-(4-methoxyphenyl)-1H-1,2,3-triazol-4-yl)prop-2-en-1-one]", "values": [{"measurement": "IC50", "setting": "SCC9 cells; [4]", "result": 9.32, "unit": "µM"}, {"measurement": "solubility (in words)", "setting": "[1]", "result": "formed highly insoluble well-structured crystals at low concentrations"}, {"measurement": "melting point", "result": "174 to 176", "unit": "°C"}]}
{"smiles": "Nc1ccccc1C(=O)/C=C/c1cn(-c2ccccc2)nn1", "note": "[1b, (E)-1-(2-Aminophenyl)-3-(1-phenyl-1H-1,2,3-triazol-4-yl)prop-2-en-1-one]", "values": [{"measurement": "IC50", "setting": "[2]; Homo sapiens, Fibroblast", "result": 35.7, "unit": "µM"}, {"measurement": "IC50", "setting": "SCC9 cells; [5]", "result": 12.7, "unit": "µM"}, {"measurement": "IC50", "setting": "SCC9 cells; [4]", "result": 12.7, "unit": "µM"}, {"measurement": "SCC9 S.I.", "setting": "SCC9 cells", "result": 2.80}, {"measurement": "IC50", "setting": "SCC4 cells; Homo sapiens, SCC-4", "result": 12.6, "unit": "µM"}, {"measurement": "SCC4 S.I.", "setting": "SCC4 cells", "result": 2.83}, {"measurement": "IC50", "setting": "SCC25 cells; Homo sapiens, SCC-25", "result": 12.5, "unit": "µM"}, {"measurement": "SCC25 S.I.", "setting": "SCC25 cells", "result": 2.85}, {"measurement": "solubility (in words)", "setting": "[1]", "result": "highly soluble"}, {"measurement": "IC50", "setting": "[3]; Homo sapiens", "result": 12.6, "unit": "µM"}, {"measurement": "Average S.I.", "setting": "[3]", "result": 2.82}, {"measurement": "melting point", "result": "183 to 185", "unit": "°C"}]}
{"smiles": "COc1ccc(C2=N[C@@H](c3ccc(Cl)cc3)[C@@H](c3ccc(Cl)cc3)N2C(=O)N2CCNC(=O)C2)c(OC(C)C)c1", "note": "[nutlin-3a, reference compound]", "values": [{"measurement": "IC50", "setting": "[2]", "result": 49.1, "unit": "µM"}, {"measurement": "IC50", "setting": "SCC9 cells; 48 h, read-out: SCC9 IC50", "result": 18, "unit": "µM"}, {"measurement": "SCC9 S.I.", "setting": "SCC9 cells", "result": 2.72}, {"measurement": "IC50", "setting": "HT29 (adenocarcinoma); 48 h, MTT", "result": 6.79, "unit": "µM"}, {"measurement": "HT29 S.I.", "setting": "HT29 (adenocarcinoma); IC50 HGF / IC50 HT29", "result": 7.22}]}
{"smiles": "Nc1ccccc1C(=O)/C=C/c1cnn(-c2ccccc2)n1", "note": "[1a, (E)-1-(2-Aminophenyl)-3-(2-phenyl-2H-1,2,3-triazol-4-yl)prop-2-en-1-one]", "values": [{"measurement": "IC50", "setting": "SCC9 cells; [4]", "result": 9.95, "unit": "µM"}, {"measurement": "solubility (in words)", "setting": "[1]", "result": "formed highly insoluble well-structured crystals at low concentrations"}, {"measurement": "melting point", "result": "128 to 130", "unit": "°C"}]}
{"smiles": "Nc1ccccc1C(=O)/C=C/c1cn(-c2ccc([N+](=O)[O-])cc2)nn1", "note": "[1d, (E)-1-(2-Aminophenyl)-3-(1-(4-nitrophenyl)-1H-1,2,3-triazol-4-yl)prop-2-en-1-one]", "values": [{"measurement": "dose-dependent cytotoxicity", "setting": "SCC9 cells", "result": "all presented dose-dependent cytotoxicity, except"}, {"measurement": "melting point", "result": "253 to 255", "unit": "°C"}]}
{"smiles": "CCOC(=O)c1ccc(-n2cc(/C=C/C(=O)c3ccccc3N)nn2)cc1", "note": "[1e, Ethyl(E)-4-(4-(3-(2-aminophenyl)-3-oxoprop-1-en-1-yl)-1H-1,2,3-triazol-1-yl)benzoate]", "values": [{"measurement": "dose-dependent cytotoxicity", "setting": "SCC9 cells", "result": "all presented dose-dependent cytotoxicity, except"}, {"measurement": "melting point", "result": "220 to 222", "unit": "°C"}]}
{"smiles": "N.N.O=C([O-])C1(C(=O)[O-])CCC1.[Pt+2]", "note": "[Carboplatin, carboplatin, reference compound]", "values": [{"measurement": "IC50", "setting": "[2]", "result": 335, "unit": "µM"}, {"measurement": "IC50", "setting": "SCC9 cells; 48 h, read-out: SCC9 IC50", "result": 156, "unit": "µM"}, {"measurement": "IC50", "setting": "SCC9 cells; SCC9, 48 h, read-out: IC50", "result": 156, "unit": "µM"}, {"measurement": "SCC9 S.I.", "setting": "SCC9 cells", "result": 2.15}, {"measurement": "IC50", "setting": "SCC4 cells", "result": 148, "unit": "µM"}, {"measurement": "SCC4 S.I.", "setting": "SCC4 cells", "result": 2.26}, {"measurement": "IC50", "setting": "SCC25 cells", "result": 191, "unit": "µM"}, {"measurement": "SCC25 S.I.", "setting": "SCC25 cells", "result": 1.75}, {"measurement": "Average S.I.", "setting": "[3]", "result": 2.03}, {"measurement": "IC50", "setting": "[3]", "result": 165, "unit": "µM"}]}
{"smiles": "COc1cccc2c1C(=O)c1c(O)c3c(c(O)c1C2=O)C[C@@](O)(C(=O)CO)C[C@@H]3O[C@H]1C[C@H](N)[C@H](O)[C@H](C)O1", "note": "[Doxorubicin, doxorubicin, reference compound]", "values": [{"measurement": "IC50", "setting": "[2]; Homo sapiens, Fibroblast", "result": 3.47, "unit": "µM"}, {"measurement": "IC50", "setting": "SCC9 cells; [5]", "result": 2.99, "unit": "µM"}, {"measurement": "IC50", "setting": "SCC9 cells; [4]", "result": 2.99, "unit": "µM"}, {"measurement": "SCC9 S.I.", "setting": "SCC9 cells", "result": 1.16}, {"measurement": "IC50", "setting": "SCC4 cells; Homo sapiens, SCC-4", "result": 0.57, "unit": "µM"}, {"measurement": "SCC4 S.I.", "setting": "SCC4 cells", "result": 6.09}, {"measurement": "IC50", "setting": "SCC25 cells; Homo sapiens, SCC-25", "result": 0.9, "unit": "µM"}, {"measurement": "SCC25 S.I.", "setting": "SCC25 cells", "result": 3.86}, {"measurement": "IC50", "setting": "[3]; Homo sapiens", "result": 1.49, "unit": "µM"}, {"measurement": "Average S.I.", "setting": "[3]", "result": 2.34}]}
